Assay results from patent US7056940B2, “Insecticidal 3-(2,6-disubstituted phenyl)-5-[5-arylthien-2-yl]-1,2,4-triazoles” (Dow AgroSciences LLC, priority 2001, dated 2006).

Key:
Assay type in all cases: in vivo
[1] = system: Tobacco Budworm (Heliothis virescens); experiment: Insecticidal test for tobacco budworm, treated cotton cotyledon leaf disc; parameters: key: A: 90–100; B: 80–89; C: 70–79; D: 60–69; E: 50–59; F: less than 50; G: Inactive; conditions: cotton cotyledon leaf-dip, 2nd instar larvae, 5 days
Excerpt: (§1) The compounds are useful for reducing populations of insects and mites and are useful in a method of inhibiting an insect or mite population which comprises applying to a locus of the insect or mite an effective insect- or mite-inactivating amount of a compound of formula (1). The “locus” of insects or mites is a term used herein to refer to the environment in which the insects or mites live or where their eggs are present, including the air surrounding them, the food they eat, or objects which they contact. For example, insects or mites which eat or contact edible or ornamental plants can be controlled by applying the active compound to plant parts such as the seed, seedling, or cutting which is planted, the leaves, stems, fruits, grain, or roots, or to the soil in which the roots are growing. It is contemplated that the compounds might also be useful to protect textiles, paper, stored grain, seeds, domesticated animals, buildings or human beings by applying an active compound to or near such objects. The term “inhibiting an insect or mite” refers to a decrease in the numbers of living insects or mites, or a decrease in the number of viable insect or mite eggs. The extent of reduction accomplished by a compound depends, of course, upon the application rate of the compound, the particular compound used, and the target insect or mite species. At least an inactivating amount should be used. The terms “insect-inactivating amount” and “mite-inactivating amount” are used to describe the amount, which is sufficient to cause a measurable reduction in the treated insect or mite population. Generally an amount in the range from about 1 to about 1000 ppm by weight active compound is used. For example, insects and mites which can be inhibited include, but are not limited to: • Lepidoptera—Heliothis spp., Helicoverpa spp., Spodoptera spp., Mythimna unipuncta, Agrotis ipsilon, Earias spp., Euxoa auxiliaris, Trichoplusia ni, Anticarsia gemmatalis, Rachiplusia nu, Plutella xylostella, Chilo spp., Scirpophaga incertulas, Sesamia inferens, Cnaphalocrocis medinalis, Ostrinia nubilalis, Cydia pomonella, Carposina niponensis, Adoxophyes orana, Archips argyrospilus, Pandemis heparana, Epinotia aporema, Eupoecilia ambiguella, Lobesia botrana, Polychrosis viteana, Pectinophora gossypiella, Pieris rapae, Phyllonorycter spp., Leucoptera malifoliella, Phyllocnisitis citrella • Coleoptera—Diabrotica spp., Leptinotarsa decemlineata, Oulema oryzae, Anthonomus grandis, Lissorhoptrus oryzophilus, Agriotes spp., Melanotus communis, Popillia japonica, Cyclocephala spp., Tribolium spp. • Homoptera—Aphis spp., Myzus persicae, Rhopalosiphum spp., Dysaphis plantaginea, Toxoptera spp., Macrosiphum euphorbiae, Aulacorthum solani, Sitobion avenae, Metopolophium dirhodum, Schizaphis graminum, Brachycolus noxius, Nephotettix spp., Nilaparvata lugens, Sogatella furcifera, Laodelphax striatellus, Bemisia tabaci, Trialeurodes vaporariorum, Aleurodes proletella, Aleurothrixus floccosus, Quadraspidiotus perniciosus, Unaspis yanonensis, Ceroplastes rubens, Aonidiella aurantii • Hemiptera—Lygus spp., Eurygaster maura, Nezara viridula, Piezodorus guildingi, Leptocorisa varicornis • Thysanoptera—Frankliniella occidentalis, Thrips spp., Scirtothrips dorsalis • Isoptera—Reticulitermes flavipes, Coptotermes formosanus • Orthoptera—Blattella germanica, Blatta orientalis, Gryllotalpa spp. • Diptera—Liriomyza spp., Musca domestica, Aedes spp., Culex spp., Anopheles spp. • Hymenoptera—Iridomyrmex humilis, Solenopsis spp., Monomorium pharaonis, Atta spp., Pogonomyrmex spp., Camponotus spp. • Siphonaptera—Ctenophalides spp., Pulex irritans • Acarina—Tetranychus spp., Panonychus spp., Eotetranychus carpini, Phyllocoptruta oleivora, Aculus pelekassi, Brevipalpus phoenicis, Boophilus spp., Dermacentor variabilis, Rhipicephalus sanguineus, Amblyomma americanum, Ixodes spp., Notoedres cati, Sarcoptes scabiei, Dermatophagoides spp. […]

[2] = system: Cotton Aphid (Aphis gossypii); experiment: Insecticidal test for cotton aphid, spray on infested squash cotyledons; conditions: 50 ppm spray, 3 days
Procedure: Insecticidal Test for Cotton Aphid (Aphis gossypii)
To prepare spray solutions, 1 mg of each test compound was dissolved into 1 mL of a 90:10 acetone:ethanol solvent. This 1 mL of chemical solution was added to 19 mL of water containing 0.05% Tween 20 surfactant to produce a 50 ppm spray solution.
Squash cotyledons were infested with cotton aphid (all life stages) 16–20 hours prior to application of spray solution. The solution was sprayed on both sides of each infested squash cotyledon (0.5 mL×2 each side) with a sweeping action until runoff. The plants were allowed to air dry and held for 3 days in a controlled room at 26° C. and 40% RH after which time the test was graded. Grading was by actual count using a dissecting microscope and comparison of test counts to the untreated check. Results are given in Tables 1–4 as percent control based on population reduction versus the untreated.

[3] = system: Two-spotted Spider Mite (Tetranychus urticae); experiment: Insecticidal test for two-spotted spider mite, ovicide method; parameters: key: A: 90–100; B: 80–89; C: 70–79; D: 60–69; E: 50–59; F: less than 50; G: Inactive; conditions: cotton leaf discs, 6 days
Procedure: Insecticidal Test for Two-spotted Spider Mite (Tetranychus urticae)
Ten adult female two-spotted spider mites were placed on eight 2.2 cm leaf discs of cotton leaf, allowed to oviposit over 24 hours, and thereafter removed. […] Discs were placed on an agar substrate and held at 24° C. and 90% RH for 6 days.

[4] = system: Beet Armyworm (Spodoptera exigua); experiment: Insecticidal test for beet armyworm, treated lepidopteran diet; parameters: key: A: 90–100; B: 80–89; C: 70–79; D: 60–69; E: 50–59; F: less than 50; G: Inactive; conditions: on diet surface, second-instar larvae, 5 days
Excerpt: as §1

[5] = system: Sweetpotato Whitefly (Bemisia tabacia); experiment: Insecticidal test for sweetpotato whitefly, spray on cotton plants; parameters: key: A: 90–100; B: 80–89; C: 70–79; D: 60–69; E: 50–59; F: less than 50; G: Inactive; conditions: 200 ppm spray, 13 days, large nymphs
Procedure: Insecticidal Test for Sweetpotato Whitefly (Bemisia tabacia)
Four mg of each test compound was dissolved by adding 4 mL of a 90:10 acetone:ethanol solvent mixture to the vial containing the sample compound. This solution was added to 16 mL of water containing 0.05% Tween 20 surfactant to produce 20 mL of an 200 ppm spray solution.
Five-week-old cotton plants reared in a greenhouse were stripped of all foliage except for the two uppermost true leaves that were greater than 5 cm in diameter. These plants were then placed into a laboratory colony of whiteflies for two days for oviposition by the colony females. All whiteflies were then removed from the test plants with pressurized air. The spray solution was then applied to the test plants with a hand-held syringe fitted with hollow cone nozzle. One mL spray solution was applied to each leaf top and bottom for a total of 4 mL per plant. Four replications of each test compound utilized a total of 16 mL spray solution. Plants were air dried and then placed in a holding chamber (28° C. and 60% RH) for 13 days. Compound efficacy was evaluated by counting, under an illuminated magnifying glass, the number of large nymphs (3rd–4th instar) per leaf.
Percent control based on reduction of large nymphs of a test compound compared to solution-only (no test compound) sprayed plants is reported in Tables 1–4.

[6] = system: Cabbage Looper (Trichoplusia ni); experiment: Insecticidal test for cabbage looper, treated cabbage leaf disc; parameters: key: A: 90–100; B: 80–89; C: 70–79; D: 60–69; E: 50–59; F: less than 50; G: Inactive; conditions: cabbage leaf-dip, 2nd instar larvae, 5 days
Excerpt: as §1

Row | Compound | TBW: activity at 400 ppm against tobacco budworm (% control rating) [1] | CA: activity at 50 ppm against cotton aphid (% control rating) [2] | SM: activity against two-spotted spider mite (% control rating) [3] | BAW: activity at 400 ppm against beet armyworm (% control rating) [4] | WF: activity at 200 ppm against whitefly (% control rating) [5] | CL: activity at 400 ppm against cabbage looper (% control rating) [6]
1 | Cc1c(-c2nc(-c3c(F)cccc3Cl)nn2C)csc1-c1ccc(Cl)cc1F | F (less than 50) | A (90–100) | A (90–100) | G | G | A (90–100)
2 | Cc1sc(-c2ccc(C(F)(F)F)cc2F)cc1-c1nc(-c2c(F)cccc2Cl)nn1C | G | F (less than 50) | B (80–89) | A (90–100) | G | A (90–100)
3 | Cc1c(-c2nc(-c3c(F)cccc3Cl)nn2C)csc1-c1ccc(OC(F)(F)CF)cc1 | G | A (90–100) | G | A (90–100) | A (90–100) | F (less than 50)
4 | CCCOc1ccc(-c2scc(-c3nc(-c4c(F)cccc4Cl)nn3C)c2C)cc1 | G | A (90–100) | G | A (90–100) | A (90–100) | A (90–100)
5 | Cc1cc(-c2cccc(C(F)(F)F)c2F)sc1-c1nc(-c2c(F)cccc2Cl)nn1C | D (60–69) | D (60–69) | A (90–100) | A (90–100) | G | A (90–100)
6 | COCCOc1ccc(-c2scc(-c3nc(-c4c(F)cccc4Cl)nn3C)c2C)cc1 | G | C (70–79) | D (60–69) | B (80–89) | F (less than 50) | B (80–89)
7 | Cc1c(-c2ccc(OC(F)(F)C(F)Cl)cc2)csc1-c1nc(-c2c(F)cccc2Cl)nn1C (stereo not drawn) | B (80–89) | B (80–89) | C (70–79) | A (90–100) | A (90–100) | A (90–100)
8 | Cc1c(-c2nc(-c3c(F)cccc3Cl)nn2C)csc1-c1ccc(OC(F)(F)F)cc1F | A (90–100) | B (80–89) | F (less than 50) | A (90–100) | A (90–100) | A (90–100)
9 | Cc1c(-c2nc(-c3c(F)cccc3Cl)nn2C)sc(Br)c1-c1ccc(OC(F)(F)C(F)Br)cc1 (stereo not drawn) | F (less than 50) | B (80–89) | G | A (90–100) | F (less than 50) | A (90–100)
10 | Cn1nc(-c2c(F)cccc2Cl)nc1-c1cc(-c2ccc3c(c2)OCC3)sc1Cl | F (less than 50) | C (70–79) | G | G | G | A (90–100)
11 | Cc1c(-c2nc(-c3c(F)cccc3Cl)nn2C)csc1-c1ccc(OC(C)C)cc1 | F (less than 50) | A (90–100) | G | G | G | G
